Assay results from patent publication US9133167B2, “Antibacterial quinoline derivatives” (JANSSEN PHARMACEUTICA NV, priority 2012, dated 2015).
Values after ≈ are worked out from the molar mass of the structure shown. Values joined by “and” are separate entries in the source; they are usually repeats but may differ in a detail not shown here. Equal entries are not always repeated.

What was measured:
[1] = test system: Staphylococcus aureus (ATCC29213); assay: Microtitre plate assay, IC90 for bacterial growth, Staphylococcus aureus strain; format: cell-based; details: 90% inhibitory concentration for bacterial growth, 24 hours at 37° C., read-out: IC90 (μg/ml) STA B29213
Method: D.2. In-Vitro Method for Testing Compounds for Anti-Bacterial Activity Against a Non-Mycobacterial Strain
Preparation of Bacterial Suspensions for Susceptibility Testing:
The bacteria used in this study were grown overnight in flasks containing 100 ml Mueller-Hinton Broth (Becton Dickinson—cat. no. 275730) in sterile de-ionized water, with shaking, at 37° C. Stocks (0.5 ml/tube) were stored at −70° C. until use. Bacteria titrations were performed in microtiter plates to detect the TCID50, in which TCID50 represents the dilution that gives rise to bacterial growth in 50% of inoculated cultures. In general, an inoculum level of approximately 100 TCID50 was used for susceptibility testing.
Anti Bacterial Susceptibility Testing: IC90 Determination
Flat-bottom, sterile 96-well plastic microtiter plates were filled with 180 μl of sterile deionized water, supplemented with 0.25% BSA. Subsequently, stock solutions (7.8× final test concentration) of compounds were added in 45 μl volumes in column 2 Serial five-fold dilutions (45 μl in 180 μl) were made directly in the microtiter plates from column 2 to reach column 11. Untreated control samples with (column 1) and without (column 12) inoculum were included in each microtiter plate. Depending on the bacteria type, approximately 10 to 60 CFU per well of bacteria inoculum (100 TCID50), in a volume of 100 μl in 2.8× Mueller-Hinton broth medium, was added to the rows A to H, except column 12. The same volume of broth medium without inoculum was added to column 12 in row A to H. The cultures were incubated at 37° C. for 24 hours under a normal atmosphere (incubator with open air valve and continuous ventilation). At the end of incubation, one day after inoculation, the bacterial growth was quantitated fluorometrically. Therefore resazurin (0.6 mg/ml) was added in a volume of 20 μl to all wells 3 hours after inoculation, and the plates were re-incubated overnight. A change in colour from blue to pink indicated the growth of bacteria. The fluorescence was read in a computer-controlled fluorometer (Cytofluor Biosearch) at an excitation wavelength of 530 nm and an emission wavelength of 590 nm. The % growth inhibition achieved by the compounds was calculated according to standard methods. The IC90 (expressed in μg/ml) was defined as the 90% inhibitory concentration for bacterial growth. The results are shown in Table 7 for an assay using a Staphylococcus aureus strain.

[2] = test system: Mycobacterium smegmatis (ATCC607); assay: In-vitro anti-bacterial activity against strain M. smegmatis ATCC607 (Alamar Blue growth inhibition); format: cell-based; details: Mycolicibacterium smegmatis, 90% inhibitory concentration for bacterial growth, 48 hours at 37° C., read-out: IC90 (μg/ml) MSM 607
Method: D.1. In-Vitro Method for Testing Compounds for Anti-Bacterial Activity Against Strain M. Smegmatis ATCC607.
Flat-bottom, sterile 96-well plastic microtiter plates were filled with 180 μl of sterile deionized water, supplemented with 0.25% BSA. Subsequently, stock solutions (7.8× final test concentration) of compounds were added in 45 μl volumes to a series of duplicate wells in column 2 so as to allow evaluation of their effects on bacterial growth. Serial five-fold dilutions (45 μl in 180 μl) were made directly in the microtiter plates from column 2 to 11 using a customised robot system (Zymark Corp., Hopkinton, Mass.). Pipette tips were changed after every 3 dilutions to minimize pipetting errors with high hydrophobic compounds. Untreated control samples with (column 1) and without (column 12) inoculum were included in each microtiter plate. Approximately 250 CFU per well of bacteria inoculum, in a volume of 100 in 2.8× Mueller-Hinton broth medium, was added to the rows A to H, except column 12. The same volume of broth medium without inoculum was added to column 12 in row A to H. The cultures were incubated at 37° C. for 48 hours in a humidified 5% CO2 atmosphere (incubator with open air valve and continuous ventilation). At the end of incubation, two days after inoculation, the bacterial growth was quantitated fluorometrically. Therefore Alamar Blue (10×) was added to all wells in a volume of 20 and plates were incubated for another 2 hours at […]
The fluorescence was read in a computer-controlled fluorometer (Cytofluor, Biosearch) at an excitation wavelength of 530 nm and an emission wavelength of 590 nm (gain 30). The percentage growth inhibition achieved by the compounds was calculated according to standard methods and expressed as IC90 […] which defines the 90% inhibitory concentration for bacterial growth.

Structure (SMILES)	IC90 [1] [µg/mL]	IC90 [2] [µg/mL]	melting point
CCn1c(=O)c(C(c2ccc(Cl)cc2)C2(O)CCN(Cc3ccccc3)CC2)cc2cc(Br)ccc21 (centres unmarked) [Compound 2]	11.3 (≈ 19.9 µM)	3.57 (≈ 6.31 µM)	212 °C
CCn1c(=O)c(C(c2ccc(Cl)cc2)C2(O)CCN(Cc3ccccc3)CC2)cc2cc(-c3cccnc3)ccc21 (centres unmarked) [Compound 3]	7.1 (≈ 12.6 µM)	3.56 (≈ 6.31 µM)	172 °C
COc1nc2ccc(Br)cc2cc1C(c1ccc(SC)cc1)C1(O)CCNCC1 (centres unmarked) [Compound 9]	7.58 (≈ 16 µM)	4.78 (≈ 10.1 µM)	204 °C
COc1nc2ccc(Br)cc2cc1C(c1ccc(Cl)cc1)C1(O)CCN(C)CC1 (centres unmarked) [Compound 16]	5.99 (≈ 12.6 µM)	2.39 (≈ 5.02 µM)	193 °C
COc1nc2ccc(Br)cc2cc1C(c1ccc(Cl)cc1)C1(O)CCN(Cc2cccc(F)c2)CC1 (centres unmarked) [Compound 17]	14.3 (≈ 25.1 µM)	14.3 (≈ 25.1 µM)	220 °C
COc1nc2ccc(CO)cc2cc1C(c1ccc(Cl)cc1)C1(O)CCN(Cc2ccccc2)CC1 (centres unmarked) [Compound 22]	> 16.3	16.3 (≈ 32.4 µM)	196 °C

Results, then the compound that gave them:

IC90 [1] [µg/mL]	IC90 [2] [µg/mL]	melting point	Structure (SMILES)
8.38 (≈ 14.1 µM)	7.47 (≈ 12.6 µM)	146 °C	COc1nc2ccc(C(=O)Nc3cccnc3)cc2cc1C(c1ccc(Cl)cc1)C1(O)CCN(Cc2ccccc2)CC1 (centres unmarked) [Compound 24]
1.59 (≈ 3.16 µM)	6.34 (≈ 12.6 µM)	> 250 °C	COc1nc2ccc(Br)cc2cc1C(c1ccc(Cl)cc1)C1(O)CCN(C(=N)N)CC1 (centres unmarked) [Compound 25]
> 30.9	3.09 (≈ 6.93 µM)	> 250 °C and 250 °C	O=c1[nH]c2ccc(-c3cccnc3)cc2cc1C(c1ccc(Cl)cc1)C1(O)CCNCC1 (centres unmarked) [Compound 26]
4.4 (≈ 7.95 µM)	–	249 °C	O=c1[nH]c2ccc(Br)cc2cc1C(c1ccc2ccccc2c1)C1(O)CCN(Cc2ccccc2)CC1 (centres unmarked) [Compound 80]
